Source: US20250346550A1, “METHODS OF MODULATING ENDONUCLEASE G USING RESVERATROL AND ITS DERIVATIVES” (THE REGENTS OF THE UNIVERSITY OF COLORADO A BODY CORPORATE, priority 2022, published 2025)

Experiments:
[1] = system: PME defect of cps-6(tm3222) embryos; experiment: PME microscopy assay in cps-6(tm3222) crosses; format: in vivo, C. elegans; conditions: 50 μM, 64-cell embryos (FIG. 3e-g)
Text: (§1) The numbers of MTR-stained paternal mitochondrial clusters were scored as in FIG. 1a. cps-6(tm3222) and lgg-1(bp523) alleles were used in the assays. Data are mean±s.e.m. n=20 embryos (b) and 15 embryos (c) in each experiment. **P<0.01; ***P<0.001; n.s., not significant, two-sided, unpaired t-test.
(§2) To investigate how these six compounds might affect PME, the present inventors performed chemical genetic analysis to analyze the PME pathways that might be affected by the compounds. The present inventors first examined whether they might affect the paternal PME pathway mediated by the mitochondrial endonuclease CPS-6, whose activity is inhibited by oxidation and protected by reducing agents.

[2] = system: PME defect of lgg-1(bp523) embryos (autophagy pathway); experiment: PME microscopy assay in lgg-1(bp523) crosses; format: in vivo, C. elegans; conditions: 50 μM, 64-cell embryos (FIG. 3c)
Text: as §1, §2

[3] = system: PME defect of rad-23 deficient animals (proteasome pathway); experiment: PME microscopy assay in rad-23(tm2595) crosses; format: in vivo, C. elegans; conditions: 50 μM, 64-cell embryos (FIG. 3d)
Procedure: FIG. 3. Resveratrol isomers target CPS-6 to affect PME. a, b, Both cis-resveratrol and trans-resveratrol act paternally to affect PME. The numbers of MTR-stained paternal mitochondrial clusters in embryos at 64-cell (a) or 16-cell (b) stage from the indicated crosses were scored. N2 males or hermaphrodites were pretreated with 0.25% ethanol (Mock), 50 μM cis-resveratrol (a), or 50 μM trans-resveratrol (b) as indicated before mating. c-g, Quantification of MTR-stained paternal mitochondrial clusters in 64-cell embryos from the indicated crosses treated with 0.25% ethanol (Mock), 50 μM cis-resveratrol, and 50 μM trans-resveratrol, respectively. Alleles used are lgg-1(bp523), cps-6(tm3222) and rad-23(tm2595). Data are mean s.e.m; n≥15 embryos (a) and n≥20 embryos (b, c-g) were scored in each experiment. ***P<0.001; n.s., not significant, two-sided, unpaired t-test. h, Resveratrol isomers enhance or inhibit the nuclease activity of CPS-6 in a plasmid DNA cleavage assay. 10 ng of CPS-6 were incubated with 0.25% ethanol (Mock), 20 μM cis-resveratrol, or 20 μM trans-resveratrol in dark at 4° C. for 1.5 hours, before 1 μg of the pPD49.78 plasmid DNA were added to the reactions. After further incubation at 30° C. for 1 hour, the reactions were resolved on a 1% agarose gel. Three different forms of plasmid DNA are indicated. […]

[4] = HPLC analysis of resveratrol isomer composition / interconversion; format: physicochemical; conditions: UV irradiation 4 hours at 0° C.; for fraction converted into the other isomer on UV exposure: pure isomer, 50 μM solution
Procedure: FIG. 2. High performance liquid chromatography analysis of resveratrol isomers. a, b, e-g HPLC profiles and peak retention times detected at 303 nm of 1.0 μg commercially “pure” trans-resveratrol (a), 1.0 μg of commercially “pure” cis-resveratrol (b), 20 μL of 50 μM aged trans-resveratrol solution (e), 20 μL of 50 μM commercially “pure” trans-resveratrol solution subjected to UV irradiation for 4 hours at 0° C. (f), and 20 μL of 50 μM commercially “pure” cis-resveratrol solution subjected to UV irradiation for 4 hours at 0° C. (g). Due to the different extinction coefficients of the resveratrol isomers, standard curves of trans-resveratrol (c) and cis-resveratrol (d) were generated by analyzing a series of working solutions for each isomer. Good linear correlations (R^2≥0.9999) were acquired over the concentration range of 0-45 μM trans-resveratrol (c) and 0-110 μM cis-resveratrol (d), with the corresponding regression equations. (h) Compositions of the resveratrol isomers in the indicated samples, without or with UV irradiation (see Methods) as quantified by HPLC.
To confirm the interconversion between trans-resveratrol and cis-resveratrol and to quantitatively measure the ratio of cis- and trans-isomers in the resveratrol solution, we performed high performance liquid chromatography (HPLC) analysis, which can effectively separate trans- and cis-isomers (FIG. 2a, b). […] This ratio of trans- and cis-resveratrol accounts for the unexpected PME inhibition by the aged trans-resveratrol solution (FIG. 1a, b), because cis-resveratrol could inhibit PME (FIG. 1d) and became the dominant isomer in this aged trans-resveratrol solution (FIG. 2h).

[5] = system: germline tumor in daf-16(mu86); cki-2(ok2105); glp-1(ar202) mutant (ET507); experiment: germline tumor model (ET507); format: in vivo, C. elegans; conditions: 200 μM, ET507 animals at 20° C.; for tumor size: adult day 5, vs 1% ethanol; for tumor occurring frequency: vs 1% ethanol
Procedure: FIG. 9. Cis-resveratrol inhibits and trans-resveratrol promotes germline tumor formation. Tumor size and tumor occurring frequency of the daf-16(mu86); cki-2(0k2105); glp-1 (ar202) mutant grown at 20° C. and treated with 1% ethanol (Mock), 200 μM cis-resveratrol (Cis), and 200 μM trans-resveratrol (Trans), respectively, are shown. Tumor assays were performed in triplicate with 100 animals per replicate. a, A five-stage classification was created to measure the tumor size in adult day 5 animals under the Normaski optic. Score 1 denotes the normal gonads seen in wild-type animals. Score 5 denotes enlarged gonads full of mitotic germ cells and without any egg or oocyte. Score 2-4 denote partially enlarged gonads. b, Tumor frequency indicates the percentage of animals with enlarged gonads (score 5). Data from three independent biological replicates are shown as mean±SEM. *P<0.05; **P<0.01; ***P<0.001, two-sided, unpaired t-test.
FIG. 14. stabilized cis-resveratrol inhibits germline tumor formation as well as cis-resveratrol. Tumor occurring frequency of the daf-16 (mu86); cki-2 (0k2105); glp-1 (ar202) mutant (ET507) grown at 20° C. and treated with 0.25% ethanol (Mock), 100 μM cis-resveratrol, and 100 μM Stabilized cis-resveratrol, respectively, are shown. Tumor assays were performed in triplicate with 100 animals per replicate. Data are mean±s.e.m. ****P<0.001, two-sided, unpaired t-test
The present inventors tested whether resveratrol isomers affect tumorigenesis in a C. elegans germline tumor model (ET507), in which three cell growth genes, daf-16, cki-2, and glp-1, are mutated, leading to uncontrolled germ cell proliferation and germline tumor.

Row | SMILES | effect on PME defect in cps-6(tm3222) mutant and cps-6; lgg-1 and cps-6; rad-23 double mutants [1] | effect on PME defects of the lgg-1(bp523) mutant [2] | effect on PME defects in rad-23 deficient animals [3] | fraction converted into the other isomer on UV exposure [4] [%] | tumor size [5] | tumor occurring frequency [5] | cis-resveratrol remaining in the mixture after UV exposure [4] [%]
1 | Oc1ccc(/C=C/c2cc(O)cc(O)c2)cc1 [trans-resveratrol, 3,5,4′-trihydroxy-trans-stilbene] | neither cis-resveratrol nor trans-resveratrol could enhance or suppress the PME defect | suppressed | inhibited | 68.5 | increases | increases | 
2 | Oc1ccc(/C=C\c2cc(O)cc(O)c2)cc1 [cis-resveratrol] | neither cis-resveratrol nor trans-resveratrol could enhance or suppress the PME defect | enhanced | enhanced | 40 | reduces | reduces | 60
